Test results: the supplement of paper PMC12463676, “Small-molecule dissolution of stress granules by redox modulation benefits ALS models” (Nature Chemical Biology, 2025)

Columns and labels:
lipoamide = compound: NC(=O)CCCCC1CCSS1 [lipoamide]; assay: thermal stability z-score vs DMSO; higher = more thermally stabilized by treatment; conditions: HeLa, lipoamide concentration 100 µM
Procedure: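 Cellular thermal proteome profiling in HeLa cells. Cells were treated with 100 µM lipoamide for 1 h, with or without 1 mM arsenate for a further 1 h, then heated to ten temperatures (37-66.3 °C), and soluble protein was quantified by TMT mass spectrometry relative to 0.1% DMSO controls. The thermal stability score (sum of log2 fold changes minus the abundance score) was transformed to a z-score; mean of n = 3 experiments.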

potassium arsenate = compound: O=[As]([O-])(O)O.[K+] [potassium arsenate]; assay: as above; conditions: HeLa; arsenate concentration 1 mM
Procedure: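 Cellular thermal proteome profiling in HeLa cells treated with 1 mM arsenate for 1 h (DMSO pretreatment), heated to ten temperatures (37-66.3 °C). Soluble protein was quantified by TMT mass spectrometry relative to DMSO controls; the thermal stability score was transformed to a z-score; mean of n = 3 experiments.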

[1] = arsenate co-treatment: 1 mM arsenate 1 h
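Note: each temperature applied for 3 min, abundance score taken as mean log2 fold change at the two lowest temperatures, z-score obtained by mean subtraction and division by SD.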

Sequence of UniProt Q5JPH6 (Q5JPH6 whole entry): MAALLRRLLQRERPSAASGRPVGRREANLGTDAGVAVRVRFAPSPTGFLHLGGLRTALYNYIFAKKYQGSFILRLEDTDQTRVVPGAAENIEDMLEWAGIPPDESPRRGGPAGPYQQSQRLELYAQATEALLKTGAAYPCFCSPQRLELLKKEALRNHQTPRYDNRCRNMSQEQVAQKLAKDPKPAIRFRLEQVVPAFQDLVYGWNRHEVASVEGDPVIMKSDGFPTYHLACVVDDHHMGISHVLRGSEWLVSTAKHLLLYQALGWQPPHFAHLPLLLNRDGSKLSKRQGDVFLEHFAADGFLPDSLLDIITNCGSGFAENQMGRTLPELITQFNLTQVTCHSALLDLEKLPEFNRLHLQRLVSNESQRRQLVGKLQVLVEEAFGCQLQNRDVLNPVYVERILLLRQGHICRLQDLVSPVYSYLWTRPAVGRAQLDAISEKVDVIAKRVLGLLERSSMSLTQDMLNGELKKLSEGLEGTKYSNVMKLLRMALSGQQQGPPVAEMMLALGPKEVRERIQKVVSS
Sequence of UniProt O00506 (O00506 whole entry, looked up): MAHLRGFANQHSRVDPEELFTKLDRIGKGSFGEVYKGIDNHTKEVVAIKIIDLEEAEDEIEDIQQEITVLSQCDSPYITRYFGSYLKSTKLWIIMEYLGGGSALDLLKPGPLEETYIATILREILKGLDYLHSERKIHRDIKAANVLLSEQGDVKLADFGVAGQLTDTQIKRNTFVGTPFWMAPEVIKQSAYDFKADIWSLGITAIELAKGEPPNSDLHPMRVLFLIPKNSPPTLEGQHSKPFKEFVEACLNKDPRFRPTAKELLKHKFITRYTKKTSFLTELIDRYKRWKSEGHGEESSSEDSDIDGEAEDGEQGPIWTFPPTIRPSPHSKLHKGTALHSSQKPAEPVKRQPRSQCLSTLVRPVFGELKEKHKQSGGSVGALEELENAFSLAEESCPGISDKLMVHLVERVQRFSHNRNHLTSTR
Sequence of UniProt O14727 (O14727 whole entry): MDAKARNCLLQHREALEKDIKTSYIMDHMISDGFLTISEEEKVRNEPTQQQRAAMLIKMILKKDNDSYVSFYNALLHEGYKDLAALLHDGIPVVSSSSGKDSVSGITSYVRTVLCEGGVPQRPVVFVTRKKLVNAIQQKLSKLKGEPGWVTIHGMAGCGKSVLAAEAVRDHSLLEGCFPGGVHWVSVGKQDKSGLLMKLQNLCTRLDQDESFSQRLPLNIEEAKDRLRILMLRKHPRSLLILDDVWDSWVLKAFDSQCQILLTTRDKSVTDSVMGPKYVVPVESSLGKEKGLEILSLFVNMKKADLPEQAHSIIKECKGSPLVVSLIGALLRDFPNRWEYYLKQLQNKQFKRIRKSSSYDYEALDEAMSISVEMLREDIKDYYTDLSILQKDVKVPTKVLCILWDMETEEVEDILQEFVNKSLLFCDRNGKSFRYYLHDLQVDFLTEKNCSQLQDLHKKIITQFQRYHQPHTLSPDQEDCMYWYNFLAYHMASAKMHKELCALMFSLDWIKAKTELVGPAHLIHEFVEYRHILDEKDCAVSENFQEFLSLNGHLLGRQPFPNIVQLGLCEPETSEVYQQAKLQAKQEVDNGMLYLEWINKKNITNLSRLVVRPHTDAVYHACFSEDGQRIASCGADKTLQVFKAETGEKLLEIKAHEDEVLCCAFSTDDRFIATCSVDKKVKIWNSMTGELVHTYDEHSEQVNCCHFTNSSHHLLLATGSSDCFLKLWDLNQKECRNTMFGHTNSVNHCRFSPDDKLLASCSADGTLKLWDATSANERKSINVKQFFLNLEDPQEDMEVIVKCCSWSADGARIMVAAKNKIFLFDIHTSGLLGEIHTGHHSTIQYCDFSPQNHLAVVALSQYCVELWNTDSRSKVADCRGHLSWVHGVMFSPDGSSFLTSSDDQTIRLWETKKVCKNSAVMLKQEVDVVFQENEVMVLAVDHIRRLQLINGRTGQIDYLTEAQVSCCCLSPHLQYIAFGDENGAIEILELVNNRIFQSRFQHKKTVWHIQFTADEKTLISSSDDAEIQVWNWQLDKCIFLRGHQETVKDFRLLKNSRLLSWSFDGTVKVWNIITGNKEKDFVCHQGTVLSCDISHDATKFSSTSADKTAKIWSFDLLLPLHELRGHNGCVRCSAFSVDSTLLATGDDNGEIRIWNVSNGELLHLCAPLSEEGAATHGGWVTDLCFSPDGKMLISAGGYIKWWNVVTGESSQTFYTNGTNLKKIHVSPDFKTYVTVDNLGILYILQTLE
Sequence of UniProt O75496 (O75496 whole entry): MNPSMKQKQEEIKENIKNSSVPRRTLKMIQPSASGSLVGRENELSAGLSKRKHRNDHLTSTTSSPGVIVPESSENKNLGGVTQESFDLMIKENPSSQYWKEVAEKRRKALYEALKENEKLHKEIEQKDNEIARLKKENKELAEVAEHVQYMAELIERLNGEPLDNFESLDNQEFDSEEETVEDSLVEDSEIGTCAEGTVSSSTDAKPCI
Sequence of UniProt Q7Z6M1 (Q7Z6M1 whole entry): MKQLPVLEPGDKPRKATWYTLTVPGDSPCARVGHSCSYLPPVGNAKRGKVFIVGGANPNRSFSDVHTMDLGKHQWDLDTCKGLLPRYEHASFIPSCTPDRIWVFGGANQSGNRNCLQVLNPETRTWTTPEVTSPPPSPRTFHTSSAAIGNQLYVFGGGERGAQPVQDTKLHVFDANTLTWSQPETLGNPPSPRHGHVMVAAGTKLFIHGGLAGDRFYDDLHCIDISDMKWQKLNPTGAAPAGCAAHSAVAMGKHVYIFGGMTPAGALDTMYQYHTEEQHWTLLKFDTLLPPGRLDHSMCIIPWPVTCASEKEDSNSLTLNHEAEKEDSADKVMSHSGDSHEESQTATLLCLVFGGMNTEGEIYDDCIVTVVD
Sequence of UniProt Q9P2B4 (Q9P2B4 whole entry): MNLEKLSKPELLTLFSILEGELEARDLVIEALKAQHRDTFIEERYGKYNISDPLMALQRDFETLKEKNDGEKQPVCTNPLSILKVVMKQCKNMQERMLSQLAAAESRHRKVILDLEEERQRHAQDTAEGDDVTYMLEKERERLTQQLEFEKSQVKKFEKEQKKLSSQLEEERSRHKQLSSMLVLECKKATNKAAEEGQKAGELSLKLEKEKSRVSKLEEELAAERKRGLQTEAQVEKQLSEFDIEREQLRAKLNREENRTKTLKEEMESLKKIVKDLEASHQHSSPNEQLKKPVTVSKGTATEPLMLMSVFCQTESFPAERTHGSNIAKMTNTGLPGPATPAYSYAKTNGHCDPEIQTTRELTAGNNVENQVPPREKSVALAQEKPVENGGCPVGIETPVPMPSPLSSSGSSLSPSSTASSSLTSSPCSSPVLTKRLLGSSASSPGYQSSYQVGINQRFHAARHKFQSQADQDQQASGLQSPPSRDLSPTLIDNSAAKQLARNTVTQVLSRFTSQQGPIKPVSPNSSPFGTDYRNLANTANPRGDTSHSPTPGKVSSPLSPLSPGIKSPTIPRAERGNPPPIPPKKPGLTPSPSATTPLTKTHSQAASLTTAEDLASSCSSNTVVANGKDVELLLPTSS
Sequence of UniProt O95139 (O95139 whole entry): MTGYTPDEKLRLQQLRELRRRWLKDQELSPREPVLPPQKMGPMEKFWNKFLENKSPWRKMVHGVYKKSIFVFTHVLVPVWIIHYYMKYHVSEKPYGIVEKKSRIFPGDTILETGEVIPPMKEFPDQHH
Sequence of UniProt P51153 (P51153 whole entry): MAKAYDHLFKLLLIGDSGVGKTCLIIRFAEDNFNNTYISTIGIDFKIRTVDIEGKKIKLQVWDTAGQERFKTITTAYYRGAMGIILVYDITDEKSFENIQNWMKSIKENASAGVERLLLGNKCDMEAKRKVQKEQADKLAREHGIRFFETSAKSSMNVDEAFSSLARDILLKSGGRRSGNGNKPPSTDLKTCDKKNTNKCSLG
Sequence of UniProt O15258 (O15258 whole entry): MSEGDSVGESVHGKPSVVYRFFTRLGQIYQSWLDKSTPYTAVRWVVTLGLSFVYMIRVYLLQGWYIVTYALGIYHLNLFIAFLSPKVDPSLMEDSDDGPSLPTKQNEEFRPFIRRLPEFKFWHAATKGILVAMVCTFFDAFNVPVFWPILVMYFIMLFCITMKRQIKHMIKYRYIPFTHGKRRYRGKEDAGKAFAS
Sequence of UniProt Q9BXK1 (Q9BXK1 whole entry): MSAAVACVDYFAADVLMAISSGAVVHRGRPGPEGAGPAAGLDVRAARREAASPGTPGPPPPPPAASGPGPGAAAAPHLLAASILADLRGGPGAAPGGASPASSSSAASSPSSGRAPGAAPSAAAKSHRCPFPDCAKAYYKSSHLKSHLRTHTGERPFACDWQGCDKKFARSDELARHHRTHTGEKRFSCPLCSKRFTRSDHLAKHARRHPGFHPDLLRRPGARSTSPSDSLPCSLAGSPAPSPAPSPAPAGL
Sequence of UniProt P52594 (P52594 whole entry): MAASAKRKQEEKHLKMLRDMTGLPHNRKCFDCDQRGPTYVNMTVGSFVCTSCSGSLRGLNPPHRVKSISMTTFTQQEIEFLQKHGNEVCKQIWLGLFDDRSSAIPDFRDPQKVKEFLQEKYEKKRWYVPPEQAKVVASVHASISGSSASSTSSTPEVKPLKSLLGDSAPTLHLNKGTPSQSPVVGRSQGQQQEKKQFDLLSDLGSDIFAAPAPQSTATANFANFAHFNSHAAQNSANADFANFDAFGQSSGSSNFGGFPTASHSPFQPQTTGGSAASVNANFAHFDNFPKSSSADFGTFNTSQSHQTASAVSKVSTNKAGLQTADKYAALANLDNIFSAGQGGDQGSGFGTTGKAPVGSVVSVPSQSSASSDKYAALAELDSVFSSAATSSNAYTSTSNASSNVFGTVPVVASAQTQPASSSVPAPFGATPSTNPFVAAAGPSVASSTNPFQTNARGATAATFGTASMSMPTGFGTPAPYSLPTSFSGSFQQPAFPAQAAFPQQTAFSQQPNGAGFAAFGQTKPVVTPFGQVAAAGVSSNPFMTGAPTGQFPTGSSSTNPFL
Sequence of UniProt Q5U5X0 (Q5U5X0 whole entry): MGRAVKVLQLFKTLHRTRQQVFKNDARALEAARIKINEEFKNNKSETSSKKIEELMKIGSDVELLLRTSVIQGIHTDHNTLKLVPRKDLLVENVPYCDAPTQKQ

Target	thermal stability z-score (lipoamide; [1])	thermal stability z-score (lipoamide; arsenate co-treatment: none)	thermal stability z-score (potassium arsenate)
RER1 (UniProt O15258)	0.802	0.615	0.934
CRYZL1 (UniProt O95825)	-0.0756	-0.692	-0.358
TPCN1 (UniProt Q9ULQ1)	0.0393	-0.00808	-0.538
STK25 (UniProt O00506)	0.466	-0.862	0.496
SLK (UniProt Q9H2G2)	0.413	0.153	-0.419
ATXN2L (UniProt Q8WWM7)	0.44	0.347	-0.118
KLF16 (UniProt Q9BXK1)	-0.384	0.0662	0.778
AMDHD2 (UniProt Q9Y303)	0.0258	0.186	1.3
RNF220 (UniProt Q5VTB9)	-0.19	-0.015	-0.283
UPF2 (UniProt Q9HAU5)	-0.16	0.104	0.0278
INPPL1 (UniProt O15357)	-0.527	-0.154	0.0386
APAF1 (UniProt O14727)	-0.167	-0.0627	-0.00853
RIOK2 (UniProt Q9BVS4)	-0.0928	-0.423	-0.171
ARGLU1 (UniProt Q9NWB6)	0.406	0.211	-0.658
DNAJC3 (UniProt Q13217)	-4.01	-3.61	0.823
AGFG1 (UniProt P52594)	-0.348	-0.424	-0.387
TPP2 (UniProt P29144)	0.657	0.44	0.194
MRPL15 (UniProt Q9P015)	-0.144	-0.0219	-0.33
PDHB (UniProt P11177)	0.134	0.282	-2.38
KCTD20 (UniProt Q7Z5Y7)	-0.132	-0.0693	-0.0752
EPHB4 (UniProt P54760)	-0.297	-0.194	0.295
TGFBRAP1 (UniProt Q8WUH2)	0.0561	-0.0483	-0.0443
RAB13 (UniProt P51153)	-0.898	-0.475	0.695
STAG1 (UniProt Q8WVM7)	0.115	-0.148	-0.00763
UBXN4 (UniProt Q92575)	-0.125	-0.121	-0.265
MSH2 (UniProt P43246)	-0.271	-0.178	-0.565
VPS37A (UniProt Q8NEZ2)	0.0547	0.243	0.0736
TNPO1 (UniProt Q92973)	-1.32	-1.31	1.98

Target	thermal stability z-score (lipoamide; [1])	thermal stability z-score (lipoamide; arsenate co-treatment: none)	thermal stability z-score (potassium arsenate)
MAD2L2 (UniProt Q9UI95)	-0.137	0.037	-0.211
POLDIP3 (UniProt Q9BY77)	-0.257	0.0404	-1.86
TOM1L1 (UniProt O75674)	-1	-0.807	-0.623
GMNN (UniProt O75496)	0.365	0.809	0.576
KIAA1143 (UniProt Q96AT1)	-0.286	0.26	-0.385
PPP1R3D (UniProt O95685)	-0.601	-0.982	-0.0465
HIF1AN (UniProt Q9NWT6)	-0.806	-0.553	0.463
CTTNBP2NL (UniProt Q9P2B4)	1.4	1.54	1.26
IMPACT (UniProt Q9P2X3)	0.0967	-0.0125	0.103
NIT2 (UniProt Q9NQR4)	0.25	0.109	0.0727
CNPY4 (UniProt Q8N129)	-1.84	-1.57	0.532
GALNT6 (UniProt Q8NCL4)	-0.515	-0.683	-0.396
RABEPK (UniProt Q7Z6M1)	0.68	0.305	-0.0506
VPS52 (UniProt Q8N1B4)	-0.424	-0.105	-0.0774
EARS2 (UniProt Q5JPH6)	-1	-0.188	0.0121
CSE1L (UniProt P55060)	0.582	0.825	0.016
HLTF (UniProt Q14527)	-0.245	-0.0608	-0.308
RDH10 (UniProt Q8IZV5)	0.347	0.244	0.115
MBLAC2 (UniProt Q68D91)	-0.0603	0.367	0.708
GALNT1 (UniProt Q10472)	-0.568	-0.256	-0.187
LYRM7 (UniProt Q5U5X0)	0.507	0.358	-0.0732
NQO2 (UniProt P16083)	1.23	0.788	0.389
PGRMC1 (UniProt O00264)	0.421	0.452	0.982
NDUFB6 (UniProt O95139)	0.071	0.306	0.873
SNAP47 (UniProt Q5SQN1)	-0.303	-0.252	-0.104
TMEM57 (UniProt Q8N5G2)	0.13	-0.0957	-0.249
GLT8D1 (UniProt Q68CQ7)	-0.426	-0.593	0.145
